Measured values taken from US20040259179A1, “Sterol markers as diagnostic tools in the prevention of atherosclerotic diseases and as tools to aid in the selection of agents to be used for the prevention and treatment of atherosclerotic disease” (priority 2003, published 2004).
Marks after values point to notes of the source that are not given here.

Experiments:
Assay type in all cases: in vivo, human
[1] = tested on: patients with primary hypercholesterolemia; assay: Non-cholesterol sterol analysis of plasma by GC-MS, EZE/SIMVA trial (Example 2); details: for effect on concentrations of sitosterol and campesterol (baseline to endpoint), in words: FIG. 6; for Campesterol Ratio: Mean change (sterol:cholesterol) / Desmosterol Ratio: Mean change (sterol:cholesterol) / Lathosterol Ratio: Mean change (sterol:cholesterol) / Sitosterol Ratio: Mean change (sterol:cholesterol) / Campesterol % change (Mean % change) / Desmosterol % change (Mean % change) / Lathosterol % change (Mean % change) / Sitosterol % change (Mean % change): baseline to endpoint, 12 weeks daily treatment, EZE 10 mg; for Campesterol Ratio: Mean change (sterol:cholesterol) / Desmosterol Ratio: Mean change (sterol:cholesterol) / Lathosterol Ratio: Mean change (sterol:cholesterol) / Sitosterol Ratio: Mean change (sterol:cholesterol) / Campesterol % change (Mean % change) / Desmosterol % change (Mean % change) / Lathosterol % change (Mean % change): SIMVA pool of all doses; for Campesterol % change (Mean % change) / Desmosterol % change (Mean % change) / Lathosterol % change (Mean % change) / Sitosterol % change (Mean % change): plasma concentration; for Sitosterol % change (Mean % change): SIMVA pool of all doses 10-80 mg
Description: (§1) A post-hoc analysis of a randomized, double-blind, placebo-controlled trial of primary hypercholesterolemia patients (LDL-C 145-250 mg/dl and TG≦350 mg/dl) was conducted to examine the effects of 12 weeks of daily treatment with ezetimibe (EZE) 10 mg, simvastatin (SIMVA) pooled doses 10-80 mg, or EZE 10 mg/SIMVA 10-80 mg (EZE/SIMVA) coadministration (pooled) on concentrations of phytosterols (sitosterol and campesterol) and cholesterol precursors (lathosterol and desmosterol). Baseline and endpoint plasma samples of 578 patients were analyzed by GC-mass spectrometry
Following a 4 week placebo lead-in/diet phase, patients with primary hypercholesterolemia (LDL-C 145-250 mg/dL and TG≦350 mg/dL) were randomized on one of the following daily treatments for 12 weeks:
Of 668 patients randomized to treatment in the original study, 578 (86%) had evaluable −70° C. plasma samples for both baseline and endpoint visits. Concentrations of non-cholesterol sterols were measured by gas chromatography-mass spectrometry (GC-MS).
(§2) The primary efficacy parameter was mean percent change in plasma sitosterol concentration from baseline to endpoint comparing EZE/SIMVA (pooled across doses) versus SIMVA monotherapy (pooled across doses). Other efficacy parameters included mean percent changes in campesterol, lathosterol and desmosterol concentrations as well as mean changes in the ratios of each of these sterols to cholesterol.
(§3) Two-tailed testing was conducted at a=0.05. To compare treatment effects on sterol concentrations and ratios, an ANCOVA model including the fixed effects of treatment, dose, and dose-by-treatment interaction was used with the baseline value as the covariate.

[2] = tested on: patients with primary hypercholesterolemia; assay: Non-cholesterol sterol analysis of plasma by GC-MS, EZE/ATORVA trial (Example 3); details: for effect on concentrations of sitosterol and campesterol (baseline to endpoint), in words: FIG. 11; for effect on concentrations of sitosterol and campesterol (baseline to endpoint), in words / effect on concentrations of cholesterol precursors lathosterol and desmosterol (baseline to endpoint), in words / effect on ratios of sitosterol:cholesterol and campesterol:cholesterol, in words / effect on ratios of lathosterol:cholesterol and desmosterol:cholesterol, in words: pooled doses, 12 weeks; for effect on concentrations of cholesterol precursors lathosterol and desmosterol (baseline to endpoint), in words: FIG. 13; for effect on ratios of sitosterol:cholesterol and campesterol:cholesterol, in words: Table in FIG. 11; for effect on ratios of lathosterol:cholesterol and desmosterol:cholesterol, in words: Table in FIG. 13; for Campesterol Noncholesterols:Cholesterol Ratio: Mean change / Desmosterol Noncholesterols:Cholesterol Ratio: Mean change / Lathosterol Noncholesterols:Cholesterol Ratio: Mean change / Sitosterol Noncholesterols:Cholesterol Ratio: Mean change / Campesterol % chng LSmean (absolute sterol concentrations) / Desmosterol % chng LSmean (absolute sterol concentrations) / Lathosterol % chng LSmean (absolute sterol concentrations) / Sitosterol % chng LSmean (absolute sterol concentrations): baseline to endpoint, 12 weeks daily treatment, EZE 10 mg, ATORVA pooled; for Campesterol % chng LSmean (absolute sterol concentrations) / Desmosterol % chng LSmean (absolute sterol concentrations) / Lathosterol % chng LSmean (absolute sterol concentrations) / Sitosterol % chng LSmean (absolute sterol concentrations): plasma
Description: (§4) A post-hoc analysis of a randomized, double-blind, placebo-controlled trial of primary hypercholesterolemia patients (LDL-C 145-250 mg/dl and TG<350 mg/dl) was conducted. Baseline and endpoint samples of 397 patients were analyzed by GCMS
In this trial, following a 4 week placebo lead-in/diet phase, patients with primary hypercholesterolemia (LDL-C 3.8-6.5 mmol/L [145-250 mg/dL] and TG≦4 mmol/L [350 mg/dL]) were randomized to one of the following daily treatments for 12 weeks:
Of 628 patients randomized to treatment in the original study, 397 (63%) had evaluable −70° C. plasma samples for both baseline and endpoint visits.
Concentrations of non-cholesterol sterols were measured by gas chromatography-mass spectrometry (GC-MS).
as §2, with “EZE/ATORVA” for “EZE/SIMVA”, “ATORVA” for “SIMVA monotherapy”
as §3

[3] = tested on: patients with primary hypercholesterolemia; assay: LDL-C and other lipid parameters by treatment, EZE/SIMVA trial (Example 2); details: 12 weeks daily treatment, EZE 10 mg, pooled SIMVA 10-80 mg; for Triglycerides (median) % Change (±SE) from Baseline: median and SE from raw data
Description: as §1
Following a 4 week placebo lead-in/diet phase, patients with primary hypercholesterolemia (LDL-C 145-250 mg/dL and TG≦350 mg/dL) were randomized on one of the following daily treatments for 12 weeks: […]

[4] = tested on: patients with primary hypercholesterolemia; assay: LDL-C and other lipid parameters by treatment, EZE/ATORVA trial (Example 3); details: 12 weeks daily treatment, EZE 10 mg, pooled ATORVA 10-80 mg; for Triglycerides (median) % Change (±SE) from Baseline: median and SE from raw data
Description: as §4
In this trial, following a 4 week placebo lead-in/diet phase, patients with primary hypercholesterolemia (LDL-C 3.8-6.5 mmol/L [145-250 mg/dL] and TG≦4 mmol/L [350 mg/dL]) were randomized to one of the following daily treatments for 12 weeks: […]

Row | Structure (SMILES) | effect on concentrations of sitosterol and campesterol (baseline to endpoint), in words ([1]; pooled doses, 12 weeks) | Campesterol Ratio: Mean change (sterol:cholesterol) [1] | Desmosterol Ratio: Mean change (sterol:cholesterol) [1] | Lathosterol Ratio: Mean change (sterol:cholesterol) [1] | Sitosterol Ratio: Mean change (sterol:cholesterol) [1] | Campesterol % change (Mean % change) [1] | Desmosterol % change (Mean % change) [1] | Lathosterol % change (Mean % change) [1] | Sitosterol % change (Mean % change) [1] | effect on concentrations of sitosterol and campesterol (baseline to endpoint), in words [2] | effect on concentrations of cholesterol precursors lathosterol and desmosterol (baseline to endpoint), in words [2] | effect on ratios of sitosterol:cholesterol and campesterol:cholesterol, in words [2] | effect on ratios of lathosterol:cholesterol and desmosterol:cholesterol, in words [2] | Campesterol Noncholesterols:Cholesterol Ratio: Mean change [2] | Desmosterol Noncholesterols:Cholesterol Ratio: Mean change [2] | Lathosterol Noncholesterols:Cholesterol Ratio: Mean change [2] | Sitosterol Noncholesterols:Cholesterol Ratio: Mean change [2] | Campesterol % chng LSmean (absolute sterol concentrations) [2] | Desmosterol % chng LSmean (absolute sterol concentrations) [2] | Lathosterol % chng LSmean (absolute sterol concentrations) [2] | further results
1 | O=C1[C@H](CC[C@H](O)c2ccc(F)cc2)[C@@H](c2ccc(O)cc2)N1c1ccc(F)cc1 [EZE, ezetimibe] | large, significant reductions | −78.6* 10^2 mmol/mol | 25.7* 10^2 mmol/mol | 36.8* 10^2 mmol/mol | −37.8* 10^2 mmol/mol | −50.5* % | 16.1% | 35.5* % | −46.5* % | large, significant reductions | significantly increased | significantly reduced | increased | −151* 10^2 mmol/mol | 38.1 10^2 mmol/mol | 56.2* 10^2 mmol/mol | −70.1* 10^2 mmol/mol | −58.2* % | 20.6* % | 34.5* % | effect on concentrations of cholesterol precursors lathosterol and desmosterol (baseline to endpoint), in words ([1]; FIG. 8, pooled doses, 12 weeks): increased; effect on ratios of sitosterol:cholesterol and campesterol:cholesterol, in words ([1]; Table in FIG. 6, pooled doses, 12 weeks): significantly reduced; effect on ratios of lathosterol:cholesterol and desmosterol:cholesterol, in words ([1]; Table in FIG. 8, pooled doses, 12 weeks): significantly increased; Sitosterol % chng LSmean (absolute sterol concentrations) [2]: −53.8* %; HDL-C LS Mean % Change (±SE) from Baseline [3]: 5.5 ± 1.6%; LDL-C LS Mean % Change (±SE) from Baseline [3]: −18.5 ± 1.8%; Total Cholesterol LS Mean % Change (±SE) from Baseline [3]: −13.5 ± 1.4%; Triglycerides (median) % Change (±SE) from Baseline [3]: −8.6 ± 3.9%; HDL-C LS Mean % Change (±SE) from Baseline [4]: 5.36 (1.71) %; LDL-C LS Mean % Change (±SE) from Baseline [4]: −17.10 (2.06) %; Total Cholesterol LS Mean % Change (±SE) from Baseline [4]: −12.97 (1.63) %; Triglycerides (median) % Change (±SE) from Baseline [4]: −2.86 (4.54) %
2 | CC(C)c1c(C(=O)Nc2ccccc2)c(-c2ccccc2)c(-c2ccc(F)cc2)n1CC[C@@H](O)C[C@@H](O)CC(=O)O [ATORVA, atorvastatin] | – | – | – | – | – | – | – | – | – | significantly increased | large, significant reductions | significantly increased | significantly reduced | 128*^† 10^2 mmol/mol | −34.5*^† 10^2 mmol/mol | −69.8*^† 10^2 mmol/mol | 77.4*^† 10^2 mmol/mol | 10.1^† % | −55.4*^† % | −69.0*^† % | Sitosterol % chng LSmean (absolute sterol concentrations) [2]: 16.1^† %; HDL-C LS Mean % Change (±SE) from Baseline [4]: 5.21 (0.85) %; LDL-C LS Mean % Change (±SE) from Baseline [4]: −43.56 (1.02) %; Total Cholesterol LS Mean % Change (±SE) from Baseline [4]: −32.96 (0.81) %; Triglycerides (median) % Change (±SE) from Baseline [4]: −25.83 (1.80) %
3 | CCC(C)(C)C(=O)O[C@H]1C[C@@H](C)C=C2C=C[C@H](C)[C@H](CC[C@@H]3C[C@@H](O)CC(=O)O3)[C@H]21 [SIMVA, simvastatin] | no significant effect | 39.8* 10^2 mmol/mol | −22.8* 10^2 mmol/mol | −37.8* 10^2 mmol/mol | 21.4* 10^2 mmol/mol | −1.6* % | −48.0* % | −53.5* % | −3.3* % | – | – | – | – | – | – | – | – | – | – | – | HDL-C LS Mean % Change (±SE) from Baseline [3]: 7.2 ± 0.8%; LDL-C LS Mean % Change (±SE) from Baseline [3]: −37.1 ± 0.9%; Total Cholesterol LS Mean % Change (±SE) from Baseline [3]: −26.8 ± 0.7%; Triglycerides (median) % Change (±SE) from Baseline [3]: −20.4 ± 1.5%
